Experiment [1] deals with Mycobacterium tuberculosis My 331/88 (H37Rv). The experiment is described as follows: microbe, parasite or virus in culture. The experiment is classed as cell-based.
Another experiment has as its system M. avium My 330/88. The experiment is described as follows: microbe, parasite or virus in culture. The experiment is classed as cell-based, Mycobacterium avium. Particulars: for MIC: Mycobacterium avium, 37 °C; for MIC values against M. avium: all MIC values (14 and 21 d).
The test system of another experiment is M. kansasii My 235/80. The experiment is described as follows: microbe, parasite or virus in culture. The experiment is classed as cell-based, Mycobacterium kansasii. Particulars: for MIC: Mycobacterium kansasii, 37 °C; for MICs for M. kansasii 235/80: all time points.
The subject of experiment [2] is M. kansasii 6509/96 (clinically isolated). The experiment is described as follows: microbe, parasite or virus in culture. The experiment is classed as cell-based. Particulars: Mycobacterium kansasii, 37 °C.
The target in another experiment is T1, AChE from electric eel (Electrophorus electricus, UniProt O42275).
T1 construct: Acetylcholinesterase was obtained from electric eel (Electrophorus electricus L.); from tissue; host or cells: electric eel (Electrophorus electricus L.)
The experiment is described as follows: AChE inhibition, modified Ellman's method. The experiment is classed as biochemical, Electrophorus electricus L. The text has this:
(§1) The ability of the tested compounds to inhibit AChE from electric eel (Electrophorus electricus L.) and BChE from equine serum was screened in vitro using modified Ellman’s method for the evaluation of cholinesterase activity. […] […]. These two standards were chosen due to their different structures. […]. The choice of these drugs with different mechanism of action can provide relevant results. All tested compounds expressed a good inhibitory activity with IC50s in low micromolar values.
(§2) The IC50 values were determined using the spectrophotometric Ellman’s method, which is a simple, rapid and direct method to determine the SH and -S-S- group content in proteins. This method is widely used for cholinesterase activity evaluation and screening of the efficiency of cholinesterase inhibitors. Cholinesterase activity is measured indirectly by quantifying the concentration of 5-thio-2-nitrobenzoic acid (TNB) ion formed in the reaction between the thiol reagent 5,5'-dithiobis-2-nitrobenzoic acid (DTNB) and thiocholine, a product of substrate hydrolysis by cholinesterase (i.e., acetylthiocholine, ATCh). All the tested compounds were dissolved in dimethyl sulfoxide (concentration 0.01 M) and then diluted in demineralised water (concentration 0.001 M and 0.0001 M). The Ellman’s method is slightly modified according to Zdrazilova et al.. Acetylcholinesterase was obtained from electric eel (Electrophorus electricus L.) and butyrylcholinesterase from equine serum.
Background: In Ellman's method for cholinesterases, released thiocholine reacts with DTNB.

A further experiment deals with T2, BChE from equine serum (Equus caballus, UniProt P81908).
T2 construct: butyrylcholinesterase from equine serum; from tissue; host or cells: equine serum
Put plainly: BChE inhibition, modified Ellman's method. It is filed as biochemical.
Description: as §1, §2

The test system of experiment [3] is nontuberculous mycobacteria (M. avium and M. kansasii). Put plainly: microbe, parasite or virus in culture. The experiment is classed as cell-based. Particulars: Mycobacterium avium, M. avium and M. kansasii strains; read-out: MIC values against nontuberculous mycobacteria.
The mark [4] stands for this setting: 336 h, 14 d, 37 °C, read-out: MIC Mtb 331/88 (H37Rv) 14 d.
[5] abbreviates: 504 h, 21 d, 37 °C, read-out: MIC Mtb 331/88 (H37Rv) 21 d.
[6] abbreviates: MY330/88, 336 h, 14 d, read-out: MIC M. avium 330/88 14 d.
[7] abbreviates: MY330/88, 504 h, 21 d, read-out: MIC M. avium 330/88 21 d.
Setting [8] is: MY235/80, 168 h, 7 d, read-out: MIC M. kansasii 235/80 7 d.
Setting [9] is: MY235/80, 336 h, 14 d, read-out: MIC M. kansasii 235/80 14 d.
Setting [10] is: MY235/80, 504 h, 21 d, read-out: MIC M. kansasii 235/80 21 d.
Where [11] appears, read: 168 h, 7 d, read-out: MIC M. kansasii 6509/96 7 d.
[12] abbreviates: 336 h, 14 d, read-out: MIC M. kansasii 6509/96 14 d.
Where [13] appears, read: 504 h, 21 d, read-out: MIC M. kansasii 6509/96 21 d.

In brackets after ≈: the same amount, converted by molar mass. Where two headings read alike, the source gives them in different places.

T1 sequence (O42275 24-633): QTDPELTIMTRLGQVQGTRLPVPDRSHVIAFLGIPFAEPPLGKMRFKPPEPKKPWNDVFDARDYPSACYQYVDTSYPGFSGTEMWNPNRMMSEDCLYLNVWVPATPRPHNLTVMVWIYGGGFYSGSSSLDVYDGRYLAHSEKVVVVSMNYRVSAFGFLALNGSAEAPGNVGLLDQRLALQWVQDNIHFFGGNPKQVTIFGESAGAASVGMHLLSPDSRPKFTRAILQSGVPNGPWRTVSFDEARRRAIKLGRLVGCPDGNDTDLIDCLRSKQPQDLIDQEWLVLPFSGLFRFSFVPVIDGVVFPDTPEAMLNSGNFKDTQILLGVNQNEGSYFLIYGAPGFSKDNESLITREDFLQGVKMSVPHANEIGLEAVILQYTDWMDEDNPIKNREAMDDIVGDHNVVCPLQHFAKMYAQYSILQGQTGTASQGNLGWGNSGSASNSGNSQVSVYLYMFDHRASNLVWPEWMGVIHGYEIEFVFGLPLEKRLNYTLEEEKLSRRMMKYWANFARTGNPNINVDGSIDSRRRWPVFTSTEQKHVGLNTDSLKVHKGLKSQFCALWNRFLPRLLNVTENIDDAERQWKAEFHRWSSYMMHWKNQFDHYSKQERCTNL
T2 sequence (P81908 whole entry): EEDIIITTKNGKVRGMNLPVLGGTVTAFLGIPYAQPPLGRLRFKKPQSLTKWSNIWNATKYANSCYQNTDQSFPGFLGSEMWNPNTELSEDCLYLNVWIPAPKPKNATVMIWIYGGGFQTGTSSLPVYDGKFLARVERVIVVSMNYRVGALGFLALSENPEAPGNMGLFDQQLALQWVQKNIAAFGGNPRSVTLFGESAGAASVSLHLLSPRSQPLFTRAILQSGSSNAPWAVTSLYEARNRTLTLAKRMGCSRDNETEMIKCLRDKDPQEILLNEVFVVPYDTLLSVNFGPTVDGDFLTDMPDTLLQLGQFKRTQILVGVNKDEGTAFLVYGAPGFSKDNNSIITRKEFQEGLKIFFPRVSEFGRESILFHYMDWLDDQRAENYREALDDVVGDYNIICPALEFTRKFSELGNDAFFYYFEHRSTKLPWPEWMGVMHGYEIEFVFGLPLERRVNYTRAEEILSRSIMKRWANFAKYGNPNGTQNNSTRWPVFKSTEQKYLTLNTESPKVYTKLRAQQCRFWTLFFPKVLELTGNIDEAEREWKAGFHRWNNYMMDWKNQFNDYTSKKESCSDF

Regarding `CCOP(=S)(OCC)Oc1cc(Cl)ccc1C(=O)Nc1ccc(C(F)(F)F)cc1` [1zz, O-(5-Chloro-2-{[4-(trifluoromethyl)phenyl]carbamoyl}phenyl) O,O-diethyl phosphorothioate], the MIC worked out at 8 µM (≈ 3.74 µg/mL) in experiment [1] (setting [4]); 16 µM (≈ 7.49 µg/mL) in experiment [1] (setting [5]); 62.5 µM (≈ 29.2 µg/mL) in the experiment on M. avium My 330/88 (setting [6]); 62.5 µM (≈ 29.2 µg/mL) with M. avium My 330/88 (setting [7]); 16 µM (≈ 7.49 µg/mL) in the experiment on M. kansasii My 235/80 (setting [8]); 16 µM (≈ 7.49 µg/mL) in the experiment on M. kansasii My 235/80 (setting [9]). In addition, the MIC with M. kansasii My 235/80 (setting [10]) is 16 µM (≈ 7.49 µg/mL); in experiment [2] (setting [11]), 16 µM (≈ 7.49 µg/mL); in experiment [2] (setting [12]) it was 32 µM (≈ 15 µg/mL); in experiment [2] (setting [13]), 32 µM (≈ 15 µg/mL); in experiment [3] it was ≥ 16 µM. For the same compound, the “MIC values against M. avium” value against M. avium My 330/88 is ≤ 250 µM. The “MICs for M. kansasii 235/80” value against M. kansasii My 235/80 was ≤ 250 µM. The IC50 against AChE from electric eel was 9.16 ± 0.17 µM; at BChE from equine serum, 18.3 ± 1 µM.

On to `CCOP(=S)(OCC)Oc1ccc(Br)cc1C(=O)Nc1ccc(C(F)(F)F)cc1` [1i, O-(4-Bromo-2-{[4-(trifluoromethyl)phenyl]carbamoyl}phenyl) O,O-diethyl phosphorothioate], for which the MIC was determined as 8 µM (≈ 4.1 µg/mL) in experiment [1] (setting [4]); 8 µM (≈ 4.1 µg/mL) in experiment [1] (setting [5]); 8 µM (≈ 4.1 µg/mL) in experiment [1] (read-out: MIC against Mtb); 125 µM (≈ 64 µg/mL) with M. avium My 330/88 (setting [6]); 125 µM (≈ 64 µg/mL) in the experiment on M. avium My 330/88 (setting [7]); 32 µM (≈ 16.4 µg/mL) in the experiment with M. kansasii My 235/80 (setting [8]). In addition, the MIC in the experiment on M. kansasii My 235/80 (setting [9]) is 62.5 µM (≈ 32 µg/mL); in the experiment on M. kansasii My 235/80 (setting [10]) it was 125 µM (≈ 64 µg/mL); in experiment [2] (setting [11]), 32 µM (≈ 16.4 µg/mL); in experiment [2] (setting [12]) it was 62.5 µM (≈ 32 µg/mL); in experiment [2] (setting [13]), 125 µM (≈ 64 µg/mL). Further, the “MIC values against M. avium” value in the experiment on M. avium My 330/88 is ≤ 250 µM. The “MICs for M. kansasii 235/80” value in the experiment with M. kansasii My 235/80 was ≤ 250 µM. The concentration for half-maximal inhibition (IC50) on AChE from electric eel worked out at 11.2 ± 0.02 µM; at BChE from equine serum it was 20.2 ± 1.6 µM.

As to `CCOP(=S)(OCC)Oc1ccc(Cl)cc1C(=O)Nc1ccc(Cl)cc1` [1k, O-{4-Chloro-2-[(4-chlorophenyl)carbamoyl]phenyl} O,O-diethyl phosphorothioate], the MIC in experiment [1] (setting [4]) turned out to be 32 µM (≈ 13.9 µg/mL); in experiment [1] (setting [5]) it was 32 µM (≈ 13.9 µg/mL); in the experiment with M. avium My 330/88 (setting [6]) it was 500 µM (≈ 217 µg/mL); in the experiment with M. avium My 330/88 (setting [7]), 500 µM (≈ 217 µg/mL); in the experiment with M. kansasii My 235/80 (setting [8]), 32 µM (≈ 13.9 µg/mL); in the experiment on M. kansasii My 235/80 (setting [9]), 62.5 µM (≈ 27.1 µg/mL). Moreover, the MIC in the experiment with M. kansasii My 235/80 (setting [10]) was 62.5 µM (≈ 27.1 µg/mL); in experiment [2] (setting [11]), 62.5 µM (≈ 27.1 µg/mL); in experiment [2] (setting [12]), 125 µM (≈ 54.3 µg/mL); in experiment [2] (setting [13]) it was 125 µM (≈ 54.3 µg/mL). Further, in the experiment on M. kansasii My 235/80, the “MICs for M. kansasii 235/80” value was ≤ 250 µM. The IC50 was 9.78 ± 0.11 µM on AChE from electric eel and 12.7 ± 0.1 µM at BChE from equine serum.

`CCOP(=S)(OCC)Oc1ccc(Cl)cc1C(=O)Nc1cccc(Cl)c1` [1j, O-{4-Chloro-2-[(3-chlorophenyl)carbamoyl]phenyl} O,O-diethyl phosphorothioate]: the MIC in experiment [1] (setting [4]) was 32 µM (≈ 13.9 µg/mL); in experiment [1] (setting [5]) it was 62.5 µM (≈ 27.1 µg/mL); in the experiment with M. avium My 330/88 (setting [6]), > 500 µM; in the experiment on M. avium My 330/88 (setting [7]) it was > 500 µM; with M. kansasii My 235/80 (setting [8]) it was 250 µM (≈ 109 µg/mL); in the experiment with M. kansasii My 235/80 (setting [9]), 250 µM (≈ 109 µg/mL). Moreover, the MIC in the experiment with M. kansasii My 235/80 (setting [10]) was found to be 500 µM (≈ 217 µg/mL); in experiment [2] (setting [11]) it was 250 µM (≈ 109 µg/mL); in experiment [2] (setting [12]), 500 µM (≈ 217 µg/mL); in experiment [2] (setting [13]) it was 500 µM (≈ 217 µg/mL). Besides, the figures for the IC50 on AChE from electric eel and on BChE from equine serum were 9.97 ± 0.24 µM and 14.8 ± 0.15 µM, respectively.

With `CCOP(=S)(OCC)Oc1ccc(Br)cc1C(=O)Nc1ccc(Br)cc1` [1e, O-{4-Bromo-2-[(4-bromophenyl)carbamoyl]phenyl} O,O-diethyl phosphorothioate], the MIC in experiment [1] (setting [4]) came to 8 µM (≈ 4.19 µg/mL); in experiment [1] (setting [5]) it was 16 µM (≈ 8.37 µg/mL); in the experiment on M. avium My 330/88 (setting [6]) it was 250 µM (≈ 131 µg/mL); with M. avium My 330/88 (setting [7]), 250 µM (≈ 131 µg/mL); in the experiment on M. kansasii My 235/80 (setting [8]) it was 125 µM (≈ 65.4 µg/mL); in the experiment on M. kansasii My 235/80 (setting [9]) it was 250 µM (≈ 131 µg/mL). Moreover, the MIC worked out at 250 µM (≈ 131 µg/mL) in the experiment on M. kansasii My 235/80 (setting [10]), 62.5 µM (≈ 32.7 µg/mL) in experiment [2] (setting [11]), 250 µM (≈ 131 µg/mL) in experiment [2] (setting [12]) and 250 µM (≈ 131 µg/mL) in experiment [2] (setting [13]). Also, the “MIC values against M. avium” value in the experiment on M. avium My 330/88 is given as ≤ 250 µM. In the experiment with M. kansasii My 235/80, the “MICs for M. kansasii 235/80” value is ≤ 250 µM. In addition, the IC50 is 10.7 µM against AChE from electric eel and 18.9 ± 0.2 µM on BChE from equine serum.

In the case of `CCOP(=S)(OCC)Oc1cc(Cl)ccc1C(=O)Nc1cccc(F)c1` [1x, O-{5-Chloro-2-[(3-fluorophenyl)carbamoyl]phenyl} O,O-diethyl phosphorothioate], the MIC in experiment [1] (setting [4]) was 16 µM (≈ 6.69 µg/mL); in experiment [1] (setting [5]) it was 32 µM (≈ 13.4 µg/mL); with M. avium My 330/88 (setting [6]), 250 µM (≈ 104 µg/mL); in the experiment on M. avium My 330/88 (setting [7]), 250 µM (≈ 104 µg/mL); in the experiment on M. kansasii My 235/80 (setting [8]) it was 32 µM (≈ 13.4 µg/mL); in the experiment on M. kansasii My 235/80 (setting [9]), 125 µM (≈ 52.2 µg/mL). Further, the MIC in the experiment with M. kansasii My 235/80 (setting [10]) stood at 250 µM (≈ 104 µg/mL); in experiment [2] (setting [11]) it was 32 µM (≈ 13.4 µg/mL); in experiment [2] (setting [12]) it was 125 µM (≈ 52.2 µg/mL); in experiment [2] (setting [13]), 250 µM (≈ 104 µg/mL). The figures for the IC50 at AChE from electric eel and on BChE from equine serum were 8.04 ± 0.27 µM and 8.68 ± 0.54 µM, respectively.

The IC50 is the concentration that gives 50% inhibition.
